From US20060160135A1, “SF-1 and LRH-1 modulator development” (priority 2004, published 2006)
Blank lines part the entries; values can stand above or below the molecule they belong to.

Tests used:
SF-1 = conditions: CV-1 cells; cited from earlier work
human SF-1 = biological target: T1, human SF-1 (Homo sapiens, UniProt Q13285); assay: AlphaScreen coactivator (SRC-1/NCoA1) recruitment to His-tagged SF-1 LBD; type: biochemical; conditions: for dose-dependent NCoA1/SRC1 recruitment to SF-1: FIG. 7B, liposome-washed SF-1
T1 construct: For E. coli expression the SF-1 G219-T461 insert was cloned into a modified pET vector; made in house
T1 sequence (Q13285 219-461): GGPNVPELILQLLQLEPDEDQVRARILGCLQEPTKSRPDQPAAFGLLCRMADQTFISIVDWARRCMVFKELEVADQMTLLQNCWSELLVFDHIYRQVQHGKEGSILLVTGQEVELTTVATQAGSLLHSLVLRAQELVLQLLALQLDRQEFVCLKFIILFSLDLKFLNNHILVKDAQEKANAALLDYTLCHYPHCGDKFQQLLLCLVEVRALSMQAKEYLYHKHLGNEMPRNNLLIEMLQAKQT
T1 sequence (Q15788 595-780 partner limits assumed): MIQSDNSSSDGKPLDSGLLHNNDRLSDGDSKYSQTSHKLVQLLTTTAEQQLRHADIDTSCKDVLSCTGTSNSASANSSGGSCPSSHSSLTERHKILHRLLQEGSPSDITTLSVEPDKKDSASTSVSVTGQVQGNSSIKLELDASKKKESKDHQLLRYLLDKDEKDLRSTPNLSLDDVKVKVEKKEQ
Source text: However, the lipids binding SF-1 could be partially extracted by washing the proteins with liposomes prepared using phosphatidylcholine (C22 acyl chain length). It was reasoned that such liposomes with long acyl chains could act as a sink for extracted lipids, without binding the receptors themselves. After such washing the coactivator binding by SF-1 was diminished, but could be activated by the addition of phosphatidylethanolamine (FIG. 5A). The PE 16:0 16:1 observed in the crystal structure is unavailable commercially, so it could not be readily obtained. […] (Parks et al., Science, 1999, 284:1365-8; Makishima et al., Science, 1999, 284:1362-5.)
A variety of different methods for detecting molecular interactions can be used. For example, Alpha Screen technology (Perkin Elmer) is suitable to detect the interaction of the receptor with the coactivator fragment. In this case it is suitable to engineer the ligand-binding domain of the SF-1 and LRH-1 as an N-terminally HIS-tagged protein that can bind the acceptor bead (containing Nickel moieties that will bind the HIS tag). The coactivator fragment can be synthesized containing a biotin moiety that will bind the donor bead. In the presence of ‘activating’ compounds the association of the receptor with the co-regulator may be strengthened, whereas the presence of ‘inhibitory’ compounds may destabilize this interaction. Libraries of chemicals, or derivatives, can be quantified for their effects on co-regulator binding.
Thus, in an exemplary implementation, the Alpha Screen Histidine detection (Nickel chelate) kit (Perkin Elmer) is used to detect binding between His-tagged receptor LBD and biotinylated coactivator peptides or fragments. The assay is performed in Costar 384-well white polystyrene plates (Coming Inc.), in a total volume of 20 μL. Compounds to be tested for their abilities to modulate the interaction of nuclear receptor with coactivator are added to the 384-well plate in 1 μL of DMSO or buffer in advance of addition of the receptor and coactivator proteins.
Reactions are initiated in 15 μl containing 50 nM His-tagged nuclear receptor and […] biotin-tagged coactivator fragment, using buffer containing 50 mM Bis-tris HCl (pH 7.0), 50 mM KCl, 0.05% Tween 20, 1 mM DTT, 0.1% BSA. Other buffer variations can be tested to optimize the largest difference in signals obtained using the apo receptor and receptor bound to compounds already determined to bind and activate the receptor. After the protein solutions are added to the compounds, the plate is sealed and incubated at room temp for 2 hours. After incubation, a 5 μL mixture containing streptavidin donor beads (15 μg/ml) and Ni-chelate acceptor beads (15 μg/ml) are added from the Nickel chelate kit. Plates are resealed and incubated in the dark for 2 hours at room temperature and then read in an AlphaFusion reader set at a read time of 1 s/well.
A signal is produced by the binding of coactivator to nuclear receptor that can be detected by the AlphaFusion reader (the binding brings the acceptor beads into close proximity of the donor beads, which allows the acceptor beads to detect the singlet oxygens produced by the donor beads, causing them to emit a light detected by the instrument). Data analysis can be performed using GraphPad Prism (GraphPad Software, Inc.). […]

[1] = biological target: coactivator fragment (GST-coactivator fusion protein; the filing does not say which); assay: co-expression in E. coli, metal affinity purification of His-tagged LRH-1

Molecule: C[C@H](CCCC(C)(C)O)[C@H]1CC[C@H]2[C@@H]3CC=C4C[C@@H](O)CC[C@]4(C)[C@H]3CC[C@]12C [25-hydroxycholesterol]
SF-1-dependent transcriptional activity (SF-1): modest increase

Molecule: C[C@@H](CO)CCC[C@@H](C)[C@H]1CC[C@H]2[C@@H]3CC=C4C[C@@H](O)CC[C@]4(C)[C@H]3CC[C@]12C [26-hydroxycholesterol]
SF-1-dependent transcriptional activity (SF-1): modest increase

Molecule: C[C@@H](CO)CCC[C@@H](C)[C@H]1CC[C@H]2[C@@H]3CC=C4C[C@@H](O)CC[C@]4(C)[C@H]3CC[C@]12C [27-hydroxycholesterol]
SF-1-dependent transcriptional activity (SF-1): modest increase

Molecule: CC/C=C\C/C=C\C/C=C\CCCCCCCC(=O)OC[C@H](COP(=O)(O)OCCN)OC(=O)CCCCCCC/C=C\C/C=C\C/C=C\CC [PE-18:3, 1,2-dilinolenoyl-sn-glycero-3-phosphoethanolamine]
activation of wild-type SF-1 to bind NCoA1 as measured by AlphaScreen (human SF-1; 50 μM compound, FIG. 7A): activates
dose-dependent NCoA1/SRC1 recruitment to SF-1 (human SF-1): Dose-dependent
dose-dependent NCoA1/SRC1 recruitment to SF-1 (human SF-1; listed as PE 18:3 18:3): dose-dependent increase
EC50 (human SF-1; SF-1 protein washed with phosphatidylcholine liposomes, biotinylated GST-SRC-1 fragment): 30 µM

Next, values leading:

decrease in coactivator fragment binding compared to the LRH-1-WT protein [1]: 70%
Molecule: His-tagged human LRH-1 LBD (S251-A495) E488K (from UniProt O00482-2) (receptor)

coactivator binding by SF-1 after liposome washing (human SF-1; SF-1 washed with phosphatidylcholine liposomes, then lipid added): activated
Molecule: phosphatidylethanolamine
